Experimental data from patent US20210274787A1, “USE OF A DIFLUORO-(2-HYDROXYPROPYL)PYRIDINE COMPOUND AS A FUNGICIDE FOR CONTROL OF LEAF SPOT OF SUGAR BEETS” (Dow AgroSciences LLC, priority 2016, published 2021).

Tested on: Cercospora beticola (CERCBE), leaf spot of sugar beet
Experiment: Field assessment of Cercospora beticola (CERCBE) in sugar beets
Assay type: in vivo
Conditions: for % Control CERCBE (based on AUDPC): sugar beet field, natural infection
Excerpt: Field Assessment of Cercospora beticola (CERCBE) in Sugar Beets:
A fungicidal treatment containing an EC formulation of compound I by itself and in combination with four adjuvants was sprayed on sugar beet plants (BEAVA, Corvina variety) six times during the course of 7 weeks ([…]) under natural infection with CERCBE. The commercial standard used in the study was difenoconazole (Score) and was applied at 100 g ai/ha. The treatment was part of an experimental trial designed as a randomized complete block with four replications and a plot of approximately 1×2 m. Compound I was applied at water volume of 400 L/ha, using a backpack precision plot sprayer (BKPCKAIR, EVEN FAN TEEJET TP 8004EVS Nozzle, 1 m boom width) and pressurized at 250 kPa.
Disease severity was recorded as a percentage of visual diseased foliage on whole plot. Cercospora leaf spot infection was assessed five times, 6 days after application A (DAAA); 6 DAAC; 12 DAAB; and 7 and 21 DAAF. The disease infection was recorded following EPPO PP 1/1 (4) guideline prescriptions. Area under the disease progress curve (AUDPC) was calculated for each plot using the sets of recorded severity data. Relative AUDPC (% control based on AUDPC) was calculated as percent of the nontreated control.

SMILES	CERCBE control compared with difenoconazole (statistical) (100 g ai/ha in 0.15% Phase II, Ethomeen, Lutensol or Agnique BP-420, ANOVA and Tukey's test (p=0.10))	level of control of CERCBE compared with difenoconazole (numerical) (100 g ai/ha in Agnique BP-420 (50% EC formulation at 0.3% v/v) or 0.15% Lutensol)	fungicidal effect on Cercospora beticola (leaf spot of sugar beet, general statement)	% Control CERCBE (based on AUDPC) (50 g ai/ha, adjuvant Agnique BP-420 (50% w/w at 0.3% v/v))	% Control CERCBE (based on AUDPC) (50 g ai/ha, no adjuvant)	% Control CERCBE (based on AUDPC) (100 g ai/ha, adjuvant Agnique BP-420 (50% w/w at 0.3% v/v))	% Control CERCBE (based on AUDPC) (100 g ai/ha, adjuvant Ethomeen T18H (0.15% v/v))	% Control CERCBE (based on AUDPC) (100 g ai/ha, adjuvant Lutensol TDA 9 (0.15% v/v))	% Control CERCBE (based on AUDPC) (100 g ai/ha, adjuvant Phase II (0.15% v/v))	% Control CERCBE (based on AUDPC) (100 g ai/ha, no adjuvant)	% Control CERCBE (based on AUDPC) (150 g ai/ha, adjuvant Agnique BP-420 (50% w/w at 0.3% v/v))	% Control CERCBE (based on AUDPC) (150 g ai/ha, no adjuvant)	% Control CERCBE (based on AUDPC) (100 g ai/ha, Score (commercial standard))
N#Cc1ccc(Oc2ccc(C(F)(F)C(O)(Cn3nc[nH]c3=S)c3ccc(F)cc3F)nc2)cc1 (stereo not shown) [Compound I, 4-((6-(2-(2,4-difluorophenyl)-1,1-difluoro-2-hydroxy-3-(5-thioxo-4,5-dihydro-1H-1,2,4-triazol-1-yl)propyl)pyridin-3-yl)oxy)benzonitrile]	statistically equivalent to that of the commercial standard difenoconazole at 100 g ai/ha	numerically equivalent to that of difenoconazole at 100 g ai/ha	significant fungicidal effect	B (51-74)	B (51-74)	A (75-100)	B (51-74)	A (75-100)	B (51-74)	B (51-74)	A (75-100)	B (51-74)	
CC1COC(Cn2cncn2)(c2ccc(Oc3ccc(Cl)cc3)cc2Cl)O1 (stereo not shown) [Difenoconazole, difenoconazole, reference compound]													A (75-100)
